Test results taken from patent US10233173B2, “Substituted 1,2,3-triazoles as NR2B-selective NMDA modulators” (JANSSEN PHARMACEUTICA NV, priority 2016, dated 2019).
Values belong to the molecule of their own block, whether it stands above or below them.

Biological target: human GluN1/GluN2B NMDA receptors (Homo sapiens, UniProt Q05586+Q13224)
Experiment: Cell-based calcium flux (FLIPR) assay on cloned human NR1/NR2B ion channels expressed in mammalian cells
Details: standard assay
Procedure, shortened: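 Calcium influx followed by FLIPR fluorescence after 5 min compound exposure and a further 5 min co-agonist challenge: 10 μM glycine with glutamate at ~EC80 (standard) or EC40 (HTS).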

[1] = glutamate at ~EC80, FLIPR calcium flux
[2] = human GluN1/GluN2B, calcium flux (FLIPR), glutamate ~EC80

Sequence of human GluN1/GluN2B NMDA receptors (Q13224 27-1484, other chains not shown): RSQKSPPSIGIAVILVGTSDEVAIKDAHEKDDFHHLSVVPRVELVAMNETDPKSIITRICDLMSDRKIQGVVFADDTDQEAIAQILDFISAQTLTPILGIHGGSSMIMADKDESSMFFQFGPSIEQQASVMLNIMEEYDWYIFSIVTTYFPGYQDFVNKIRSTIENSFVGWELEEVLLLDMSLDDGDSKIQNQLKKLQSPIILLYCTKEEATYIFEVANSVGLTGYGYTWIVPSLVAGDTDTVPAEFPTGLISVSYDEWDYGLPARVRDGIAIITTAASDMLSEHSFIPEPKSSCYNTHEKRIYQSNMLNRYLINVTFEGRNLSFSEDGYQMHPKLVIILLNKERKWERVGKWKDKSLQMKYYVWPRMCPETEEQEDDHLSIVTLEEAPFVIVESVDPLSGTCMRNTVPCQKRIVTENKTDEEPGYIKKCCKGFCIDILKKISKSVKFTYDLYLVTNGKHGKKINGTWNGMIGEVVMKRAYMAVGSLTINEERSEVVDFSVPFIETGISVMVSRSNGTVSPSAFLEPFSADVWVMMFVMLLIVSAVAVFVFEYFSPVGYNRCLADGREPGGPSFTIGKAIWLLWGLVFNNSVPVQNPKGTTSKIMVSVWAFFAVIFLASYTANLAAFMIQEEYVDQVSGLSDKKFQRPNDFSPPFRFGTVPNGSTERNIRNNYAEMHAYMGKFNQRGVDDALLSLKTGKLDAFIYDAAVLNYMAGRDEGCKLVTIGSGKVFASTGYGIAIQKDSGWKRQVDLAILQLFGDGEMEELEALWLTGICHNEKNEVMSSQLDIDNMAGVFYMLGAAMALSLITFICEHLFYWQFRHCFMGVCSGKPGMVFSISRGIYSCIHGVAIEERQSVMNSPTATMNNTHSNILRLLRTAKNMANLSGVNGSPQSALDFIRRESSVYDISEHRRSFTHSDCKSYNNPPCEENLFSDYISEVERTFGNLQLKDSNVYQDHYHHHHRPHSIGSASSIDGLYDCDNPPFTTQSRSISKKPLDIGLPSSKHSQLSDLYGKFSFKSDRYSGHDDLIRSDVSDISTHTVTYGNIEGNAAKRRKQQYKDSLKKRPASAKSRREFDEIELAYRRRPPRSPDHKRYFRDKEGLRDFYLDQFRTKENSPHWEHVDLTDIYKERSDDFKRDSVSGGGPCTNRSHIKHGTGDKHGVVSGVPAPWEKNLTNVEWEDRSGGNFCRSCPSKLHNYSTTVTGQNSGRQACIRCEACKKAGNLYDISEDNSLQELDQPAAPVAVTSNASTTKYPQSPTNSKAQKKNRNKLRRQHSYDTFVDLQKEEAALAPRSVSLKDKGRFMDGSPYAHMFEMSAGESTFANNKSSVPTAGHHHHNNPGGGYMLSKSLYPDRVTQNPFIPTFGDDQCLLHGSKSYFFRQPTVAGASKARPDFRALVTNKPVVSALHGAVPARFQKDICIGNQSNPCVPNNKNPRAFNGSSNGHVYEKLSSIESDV

Structure (SMILES): Fc1ccc(-n2cc(COc3nccc(COCC(F)F)n3)nn2)cc1OC(F)F [Example 716, 4-((2,2-Difluoroethoxy)methyl)-2-((1-(3-(difluoromethoxy)-4-fluorophenyl)-1H-1,2,3-triazol-4-yl)methoxy)pyrimidine]
- IC50 [1]: 0.049 µM

Structure (SMILES): Cc1nc(OCc2nnn(-c3ccc(F)c(C(C)(F)F)c3)c2C)ncc1Cl [Example 596, 5-Chloro-2-[[1-[3-(1,1-difluoroethyl)-4-fluoro-phenyl]-5-methyl-triazol-4-yl]methoxy]-4-methyl-pyrimidine]
- IC50 [1]: 0.601 µM

- IC50 [2]: 0.007 µM
Structure (SMILES): Cc1cnc(OC(C)c2cn(-c3ccc(Cl)c(OC(F)F)c3)nn2)nc1 (single isomer, unassigned) [Example 58, (S*)-2-[1-[1-[4-Chloro-3-(difluoromethoxy)phenyl]triazol-4-yl]ethoxy]-5-methyl-pyrimidine]

Structure (SMILES): CC(F)(F)c1cc(-n2cc(COc3ncc(OC(F)F)cn3)nn2)ccc1F [Example 572, 2-[[1-[3-(1,1-Difluoroethyl)-4-fluoro-phenyl]triazol-4-yl]methoxy]-5-(difluoromethoxy)pyrimidine]
- IC50 [1]: 0.025 µM

- IC50 [1]: 0.025 µM
Structure (SMILES): Fc1ccc(-n2cc(COc3nccc(N4CC(F)C4)n3)nn2)cc1OC(F)F [Example 510, 2-[[1-[3-(Difluoromethoxy)-4-fluoro-phenyl]triazol-4-yl]methoxy]-4-(3-fluoroazetidin-1-yl)pyrimidine]

Structure (SMILES): CC(Oc1ncc(Cl)cn1)c1cn(-c2ccc(Cl)c(OC(F)F)c2)nn1 (racemic) [Example 60, (R/S)-5-Chloro-2-[1-[1-[4-chloro-3-(difluoromethoxy)phenyl]triazol-4-yl]ethoxy]pyrimidine]
- IC50 [2]: 0.032 µM

Structure (SMILES): CC(C)c1cnc(OCc2cn(-c3ccc(F)c(C(C)(F)F)c3)nn2)nc1 [Example 70, 2-[[1-[3-(1,1-Difluoroethyl)-4-fluoro-phenyl]triazol-4-yl]methoxy]-5-isopropyl-pyrimidine]
- IC50 [2]: 0.044 µM

- IC50 [1]: 0.412 µM
Structure (SMILES): CC(O)(c1cnc(OCc2cn(-c3ccc(F)c(C(F)(F)F)c3)nn2)nc1)C(F)(F)F (racemic) [Example 441, (R/S)-1,1,1-Trifluoro-2-[2-[[1-[4-fluoro-3-(trifluoromethyl)phenyl]triazol-4-yl]methoxy]pyrimidin-5-yl]propan-2-ol]

Structure (SMILES): COCc1ccnc(OCc2cn(-c3ccc(F)c(C)c3)nn2)n1 [Example 479, 2-[[1-(4-Fluoro-3-methyl-phenyl)triazol-4-yl]methoxy]-4-(methoxymethyl)pyrimidine]
- IC50 [1]: 0.036 µM

Structure (SMILES): FC(F)c1cc(-n2cc(COc3ncc(Cl)cn3)nn2)ccc1Cl [Example 47, 5-Chloro-2-[[1-[4-chloro-3-(difluoromethyl)phenyl]triazol-4-yl]methoxy]pyrimidine]
- IC50 [2]: 0.003 µM

Structure (SMILES): Cc1cnc(OCc2cn(-c3ccc(Cl)c(C(F)F)c3)nn2)nc1C [Example 86, 2-[[1-[4-Chloro-3-(difluoromethyl)phenyl]triazol-4-yl]methoxy]-4,5-dimethyl-pyrimidine]
- IC50 [2]: 0.004 µM

Structure (SMILES): Fc1cnc(OCc2cn(-c3cccc(C(F)F)c3)nn2)nc1 [Example 269, 2-[[1-[3-(Difluoromethyl)phenyl]triazol-4-yl]methoxy]-5-fluoro-pyrimidine]
- IC50 [2]: 0.325 µM

Structure (SMILES): COCc1ccnc(OCc2cn(-c3cccc(C(F)F)c3)nn2)n1 [Example 271]
- IC50 [2]: 0.36 µM

Structure (SMILES): Cc1nc(OCc2cn(-c3ccc(F)c(C)c3F)nn2)ncc1Cl [Example 650, 5-Chloro-2-[[1-(2,4-difluoro-3-methyl-phenyl)triazol-4-yl]methoxy]-4-methyl-pyrimidine]
- IC50 [1]: 0.005 µM

Structure (SMILES): CNC(=O)c1cnc(OCc2cn(-c3ccc(F)c(C(F)(F)F)c3)nn2)nc1 [Example 452, 2-[[1-[4-Fluoro-3-(trifluoromethyl)phenyl]triazol-4-yl]methoxy]-N-methyl-pyrimidine-5-carboxamide]
- IC50 [1]: 0.218 µM

Structure (SMILES): Cc1cccc(-n2cc(COc3ncccn3)nn2)c1 [Example 242, 2-[[1-(m-Tolyl)triazol-4-yl]methoxy]pyrimidine]
- IC50 [2]: 0.647 µM

Structure (SMILES): COc1cnc(OCc2cn(-c3ccc(OC(F)F)cc3)nn2)nc1 [Example 331, 2-[[1-[4-(Difluoromethoxy)phenyl]triazol-4-yl]methoxy]-5-methoxy-pyrimidine]
- IC50 [2]: 0.098 µM

Structure (SMILES): Fc1ccc(-n2cc(COc3ncc(C(F)(F)F)cn3)nn2)cc1C(F)F [Example 50, 2-[[1-[3-(Difluoromethyl)-4-fluoro-phenyl]triazol-4-yl]methoxy]-5-(trifluoromethyl)pyrimidine]
- IC50 [2]: 0.007 µM

Structure (SMILES): Cn1cc(NCc2cn(-c3ccc(F)c(C(F)F)c3)nn2)cn1 [Example 99, N-[[1-[3-(Difluoromethyl)-4-fluoro-phenyl]triazol-4-yl]methyl]-1-methyl-pyrazol-4-amine]
- IC50 [2]: 5.05 µM

Structure (SMILES): Cc1cnc(OCc2nnn(-c3ccc(F)c(C(C)(F)F)c3)c2C)nc1 [Example 173, 2-[[1-[3-(1,1-Difluoroethyl)-4-fluoro-phenyl]-5-methyl-triazol-4-yl]methoxy]-5-methyl-pyrimidine]
- IC50 [2]: 0.465 µM

Structure (SMILES): CC(C)(O)c1cnc(OCc2cn(-c3cccc(Cl)c3F)nn2)nc1 [Example 615, 2-[2-[[1-(3-Chloro-2-fluoro-phenyl)triazol-4-yl]methoxy]pyrimidin-5-yl]propan-2-ol]
- IC50 [1]: 4.66 µM

Structure (SMILES): CC(C)(O)c1cnc(OCc2cn(-c3ccc(F)c(C4CC4)c3)nn2)nc1 [Example 180, 2-[2-[[1-(3-Cyclopropyl-4-fluoro-phenyl)triazol-4-yl]methoxy]pyrimidin-5-yl]propan-2-ol]
- IC50 [2]: 0.133 µM

Structure (SMILES): CCc1cnc(OCc2cn(-c3cccc(C(F)(F)F)c3)nn2)nc1 [Example 287, 5-Ethyl-2-[[1-[3-(trifluoromethyl)phenyl]triazol-4-yl]methoxy]pyrimidine]
- IC50 [2]: 0.005 µM

Structure (SMILES): Cc1cnc(NCc2cn(-c3ccc(F)c(C(C)(F)F)c3)nn2)nc1C [Example 210, N-[[1-[3-(1,1-Difluoroethyl)-4-fluoro-phenyl]triazol-4-yl]methyl]-4,5-dimethyl-pyrimidin-2-amine]
- IC50 [2]: 0.05 µM

Structure (SMILES): Cc1c(F)ccc(-n2cc(COc3nccc(C(F)F)n3)nn2)c1F [Example 642, 4-(Difluoromethyl)-2-[[1-(2,4-difluoro-3-methyl-phenyl)triazol-4-yl]methoxy]pyrimidine]
- IC50 [1]: 2.21 µM

- IC50 [2]: 0.011 µM
Structure (SMILES): C[C@@H](Oc1ncccn1)c1cn(-c2ccc(Cl)c(OC(F)F)c2)nn1 [Example 374, 2-[(1R)-1-[1-[4-Chloro-3-(difluoromethoxy)phenyl]triazol-4-yl]ethoxy]pyrimidine]

Structure (SMILES): Fc1cccnc1OCc1cn(-c2ccc(Cl)c(OC(F)F)c2)nn1 [Example 107, 2-[[1-[4-Chloro-3-(difluoromethoxy)phenyl]triazol-4-yl]methoxy]-3-fluoro-pyridine]
- IC50 [2]: 0.119 µM

Structure (SMILES): CC(F)(F)c1cc(-n2cc(COc3ncc(N4CCC4)cn3)nn2)ccc1F [Example 588, 5-(Azetidin-1-yl)-2-[[1-[3-(1,1-difluoroethyl)-4-fluoro-phenyl]triazol-4-yl]methoxy]pyrimidine]
- IC50 [1]: 0.034 µM

Structure (SMILES): Cc1nc(OCc2cn(-c3ccc(F)c(C)c3F)nn2)ncc1F [Example 649, 2-[[1-(2,4-Difluoro-3-methyl-phenyl)triazol-4-yl]methoxy]-5-fluoro-4-methyl-pyrimidine]
- IC50 [1]: 0.152 µM

Structure (SMILES): Cn1ccnc1NCc1cn(-c2ccc(F)c(OC(F)F)c2)nn1 [Example 7, N-[[1-[3-(Difluoromethoxy)-4-fluoro-phenyl]triazol-4-yl]methyl]-1-methyl-imidazol-2-amine]
- IC50 [2]: 1.87 µM

Structure (SMILES): Fc1ccc(-n2cc(COc3nccc(N4CCCC4)n3)nn2)cc1OC(F)F [Example 168, 2-[[1-[3-(Difluoromethoxy)-4-fluoro-phenyl]triazol-4-yl]methoxy]-4-pyrrolidin-1-yl-pyrimidine]
- IC50 [2]: 0.008 µM

Structure (SMILES): FC(F)c1cccc(-n2cc(COc3nccc(N4CCCCC4)n3)nn2)c1 [Example 285, 2-[[1-[3-(Difluoromethyl)phenyl]triazol-4-yl]methoxy]-4-(1-piperidyl)pyrimidine]
- IC50 [2]: 0.299 µM

Structure (SMILES): CC(F)(F)c1cc(-n2cc(COc3ncccc3F)nn2)ccc1F [Example 555, 2-[[1-[3-(1,1-Difluoroethyl)-4-fluoro-phenyl]triazol-4-yl]methoxy]-3-fluoro-pyridine]
- IC50 [1]: 0.265 µM

- IC50 [2]: 0.007 µM
Structure (SMILES): Cc1ccnc(OCc2cn(-c3ccc(F)c(OC(F)F)c3)nn2)n1 [Example 64, 2-[[1-[3-(Difluoromethoxy)-4-fluoro-phenyl]triazol-4-yl]methoxy]-4-methyl-pyrimidine]

- IC50 [1]: 0.031 µM
Structure (SMILES): CC(O)c1cnc(OCc2cn(-c3ccc(F)c(C(F)(F)F)c3)nn2)nc1 (racemic) [Example 448, (R/S)-1-[2-[[1-[4-Fluoro-3-(trifluoromethyl)phenyl]triazol-4-yl]methoxy]pyrimidin-5-yl]ethanol]

Structure (SMILES): CN(C)c1cnc(OCc2cn(-c3ccc(F)c(C(C)(F)F)c3)nn2)nc1 [Example 590, 2-((1-(3-(1,1-Difluoroethyl)-4-fluorophenyl)-1H-1,2,3-triazol-4-yl)methoxy)-N,N-dimethylpyrimidin-5-amine]
- IC50 [1]: 0.039 µM

Structure (SMILES): CC(C)c1cnc(NCc2cn(-c3ccc(F)c(C(C)(F)F)c3)nn2)nc1 [Example 208, N-[[1-[3-(1,1-Difluoroethyl)-4-fluoro-phenyl]triazol-4-yl]methyl]-5-isopropyl-pyrimidin-2-amine]
- IC50 [2]: 0.581 µM

Structure (SMILES): Fc1ccc(-n2cc(COc3ncc(N4CCC(F)(F)C4)cn3)nn2)cc1C(F)F [Example 422, 2-((1-(3-(Difluoromethyl)-4-fluorophenyl)-1H-1,2,3-triazol-4-yl)methoxy)-5-(3,3-difluoropyrrolidin-1-yl)pyrimidine]
- IC50 [1]: 0.068 µM

Structure (SMILES): Cn1ccnc1NCc1cn(-c2ccc(F)c(C(F)F)c2)nn1 [Example 220, N-((1-(3-(Difluoromethyl)-4-fluorophenyl)-1H-1,2,3-triazol-4-yl)methyl)-1-methyl-1H-imidazol-2-amine]
- IC50 [2]: 3.65 µM

Structure (SMILES): COc1cnc(NCc2cn(-c3ccc(Cl)c(C(F)F)c3)nn2)nc1 [Example 203, N-[[1-[4-Chloro-3-(difluoromethyl)phenyl]triazol-4-yl]methyl]-5-methoxy-pyrimidin-2-amine]
- IC50 [2]: 0.03 µM
